# Measured values taken from paper PMC8069214, “Synthesis, Biological Evaluation, and Molecular Modeling of Aza-Crown Ethers” (Molecules, 2021).
# Biological target: T1, FPR2 (Homo sapiens, UniProt P25090)
# T1 construct: expressed in transfected cells
# T1 sequence (P25090 1-351): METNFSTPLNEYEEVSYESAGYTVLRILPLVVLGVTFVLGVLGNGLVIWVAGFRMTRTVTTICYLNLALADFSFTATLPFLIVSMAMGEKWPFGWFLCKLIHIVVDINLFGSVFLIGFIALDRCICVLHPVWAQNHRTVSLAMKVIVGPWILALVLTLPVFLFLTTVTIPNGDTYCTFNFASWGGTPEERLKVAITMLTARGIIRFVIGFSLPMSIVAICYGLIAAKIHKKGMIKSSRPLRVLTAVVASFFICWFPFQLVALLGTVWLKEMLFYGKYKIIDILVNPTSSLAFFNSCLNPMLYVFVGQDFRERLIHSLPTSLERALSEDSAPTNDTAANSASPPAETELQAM
# Test: Inhibition of WKYMVM-induced [Ca2+]i flux in FPR2-HL60 cells
# Assay type: cell-based
# Conditions: 10 min preincubation, 5 nM WKYMVM; N.A. = no activity at < 50 µM; read-out: FPR1/FPR2 Agonist-Induced Δ[Ca^2+]i FPR2-HL60 IC50
# Description: Since these compounds elevated neutrophil [Ca^2+]i, and cytosolic Ca^2+ flux is a key component of neutrophil activation, we evaluated if they could alter neutrophil activation by FPR1 or FPR2 agonists. Neutrophils and FPR-transfected HL60 cells were preincubated for 10 min with crown ether compounds, and [Ca^2+]i flux was stimulated with either an FPR1 agonist (fMLF for human neutrophils and FPR1-HL60 cells) or an FPR2 agonist (WKYMVM for FPR2-HL60 cells).
# Human promyelocytic leukemia HL60 cells stably transfected with FPR1 (FPR1-HL60 cells) or FPR2 (FPR2-HL60 cells) (kind gifts from Dr. Marie-Josephe Rabiet, INSERM, Grenoble, France) were cultured in RPMI 1640 medium supplemented with 10% heat-inactivated fetal calf serum, 10 mM HEPES, 100 μg/mL streptomycin, 100 U/mL penicillin, and G418 (1 mg/mL). Although stable cell lines are cultured under G418 selection pressure, G418 may affect some assays, so it was removed in the last round of culture before assays were performed.
# Changes in neutrophil intracellular Ca^2+ concentrations ([Ca^2+]i) were measured with a FlexStation 3 scanning fluorometer (Molecular Devices, Sunnyvale, CA, USA). Briefly, human neutrophils were suspended in HBSS^−, loaded with Fluo-4AM at a final concentration of 1.25 μg/mL, and incubated for 30 min in the dark at 37 °C. After dye loading, the cells were washed with HBSS^−, resuspended in HBSS^+, separated into aliquots, and loaded into the wells of flat-bottom, half-area well black microtiter plates (2 × 10^5 cells/well). To assess the direct effects of test compounds on Ca^2+ flux, the compounds were added to the wells (final concentration of DMSO was 1%), and changes in fluorescence were monitored (λex = 485 nm, λem = 538 nm) every 5 s for 240 s at room temperature after addition of the test compound. To evaluate inhibitory effects of the compounds on FPR1/FPR2-dependent Ca^2+ flux, the compounds were added to the wells (final concentration of DMSO was 1%) with cells (human neutrophils or FPR1/FPR2 HL60 cells). The samples were preincubated for 10 min, followed by addition of 5 nM fMLF (for human neutrophils or FPR1-HL60 cells) or 5 nM WKYMVM (for FPR2-HL60 cells). The maximum change in fluorescence, expressed in arbitrary units over baseline, was used to determine the agonist response. Responses were normalized to the response induced by 5 nM fMLF or 5 nM WKYMVM, which were assigned as 100%. Curve fitting (at least five or six points) and calculation of median effective concentration values (EC50 or IC50) were performed by nonlinear regression analysis of the dose–response curves generated using Prism 7 (GraphPad Software, Inc., San Diego, CA, USA). Efficacy was determined by comparing individual responses activated by the test compounds to that induced by a positive control (5 nM fMLF), which was assigned a value of 100%.
row,IC50 [µM],SMILES
1,32.6 ± 4.5,"O=C(N1CCOCCOCCN(C(=O)C23CC4CC(CC(C4)C2)C3)CCOCC1)C12CC3CC(CC(C3)C1)C2 [Compound 13, N,N’-bis[1-oxo-1-(1-adamantyl)methyl]-4,10-diaza-15-crown-5]"
2,8.3 ± 2.3,"O=C(N1CCOCCOCCOCCN(C(=O)C23CC4CC(CC(C4)C2)C3)CCOCC1)C12CC3CC(CC(C3)C1)C2 [Compound 14, N,N’-bis[1-oxo-1-(1-adamantyl)methyl]-4,10-diaza-18-crown-6]"
3,7.2 ± 1.7,"O=C(CC12CC3CC(CC(C3)C1)C2)N1CCOCCOCCN(C(=O)CC23CC4CC(CC(C4)C2)C3)CCOCC1 [Compound 15, N,N’-bis[2-(1-adamantyl)acetyl]-4,10-diaza-15-crown-5]"
4,7.6 ± 1.9,"O=C(CC12CC3CC(CC(C3)C1)C2)N1CCOCCOCCN(C(=O)CC23CC4CC(CC(C4)C2)C3)CCOCCOCC1 [Compound 17, N,N’-bis[2-(1-adamantyl)acetyl]-4,13-diaza-18-crown-6]"

# Test system: human neutrophils
# Test: fMLF-induced neutrophil chemotaxis (ChemoTx chambers)
# Assay type: cell-based
# Conditions: 1 h, 1 nM fMLF, 60 min migration
# Description: Human neutrophils were suspended in HBSS^+ containing 2% (v/v) heat-inactivated fetal bovine serum (2 × 10^6 cells/mL), and effects of the compounds on fMLF-induced chemotaxis was analyzed in 96-well ChemoTx chemotaxis chambers (Neuroprobe, Gaithersburg, MD, USA). In brief, neutrophils were preincubated with the indicated concentrations of the test compounds or DMSO for 20 min at room temperature and added to the upper wells of the ChemoTx chemotaxis chambers. The lower wells were loaded with 30 µL of HBSS^+ containing 2% (v/v) fetal bovine serum and the indicated concentrations of test sample plus 1 nM fMLF, DMSO (negative control), or 1 nM fMLF as a positive control. Neutrophils were added to the upper wells and allowed to migrate through the 5.0-µm pore polycarbonate membrane filter for 60 min at 37 °C and 5% CO2. The number of migrated cells was determined by measuring ATP in lysates of transmigrated cells using a luminescence-based assay (CellTiter-Glo; Promega, Madison, WI, USA), and luminescence measurements were converted to absolute cell numbers by comparison of the values with standard curves obtained with known numbers of neutrophils. Curve fitting (at least eight to nine points) and calculation of median effective concentration values (IC50) were performed by nonlinear regression analysis of the dose-response curves generated using Prism 5.
row,IC50 [µM],SMILES
1,5.8 ± 1.4,"O=C(N1CCOCCOCCN(C(=O)C23CC4CC(CC(C4)C2)C3)CCOCC1)C12CC3CC(CC(C3)C1)C2 [Compound 13, N,N’-bis[1-oxo-1-(1-adamantyl)methyl]-4,10-diaza-15-crown-5]"
2,6.1 ± 2.1,"O=C(N1CCOCCOCCOCCN(C(=O)C23CC4CC(CC(C4)C2)C3)CCOCC1)C12CC3CC(CC(C3)C1)C2 [Compound 14, N,N’-bis[1-oxo-1-(1-adamantyl)methyl]-4,10-diaza-18-crown-6]"
3,5.7 ± 0.2,"O=C(CC12CC3CC(CC(C3)C1)C2)N1CCOCCOCCN(C(=O)CC23CC4CC(CC(C4)C2)C3)CCOCC1 [Compound 15, N,N’-bis[2-(1-adamantyl)acetyl]-4,10-diaza-15-crown-5]"
4,5.2 ± 1.7,"O=C(CC12CC3CC(CC(C3)C1)C2)N1CCOCCOCCN(C(=O)CC23CC4CC(CC(C4)C2)C3)CCOCCOCC1 [Compound 17, N,N’-bis[2-(1-adamantyl)acetyl]-4,13-diaza-18-crown-6]"

# Test system: not given
# Test: not given
# Conditions: not given
row,melting point [°C],SMILES
1,72 to 76,"O=C(CC12CC3CC(CC(C3)C1)C2)N1CCOCCOCCN(C(=O)CC23CC4CC(CC(C4)C2)C3)CCOCC1 [Compound 15, N,N’-bis[2-(1-adamantyl)acetyl]-4,10-diaza-15-crown-5]"
